Assays:
OCT2 (SLC22A2) = biological target: T1, OCT2 (SLC22A2) (Homo sapiens, UniProt O15244); experiment: Cellular uptake into OCT2-overexpressing HEK293 cells vs EV control cells (HPLC-MS/MS); conditions: label = favoured enantiomer
T1 sequence (O15244 1-555): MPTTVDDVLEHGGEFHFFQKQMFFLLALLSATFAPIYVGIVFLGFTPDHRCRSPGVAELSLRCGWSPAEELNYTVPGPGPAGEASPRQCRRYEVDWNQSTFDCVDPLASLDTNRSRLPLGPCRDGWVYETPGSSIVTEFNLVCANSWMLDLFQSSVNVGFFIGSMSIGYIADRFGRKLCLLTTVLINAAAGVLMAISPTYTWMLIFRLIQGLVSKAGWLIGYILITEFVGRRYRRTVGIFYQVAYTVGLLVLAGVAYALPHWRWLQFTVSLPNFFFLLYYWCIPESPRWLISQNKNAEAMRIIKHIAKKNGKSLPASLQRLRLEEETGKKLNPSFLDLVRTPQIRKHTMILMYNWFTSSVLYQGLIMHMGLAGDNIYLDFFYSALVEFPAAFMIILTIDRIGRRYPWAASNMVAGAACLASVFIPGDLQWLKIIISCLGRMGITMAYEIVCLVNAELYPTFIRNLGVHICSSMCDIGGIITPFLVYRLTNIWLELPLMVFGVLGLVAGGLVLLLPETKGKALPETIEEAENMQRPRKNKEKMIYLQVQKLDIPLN

MATE2-K (SLC47A2) = MATE2-K (SLC47A2) (Homo sapiens, UniProt Q86VL8)
OCT1 (SLC22A1) = biological target: T2, OCT1 (SLC22A1) (Homo sapiens, UniProt O15245); experiment: Cellular uptake into OCT1-overexpressing HEK293 cells vs EV control cells (HPLC-MS/MS); conditions: label = favoured enantiomer
T2 sequence (O15245 1-554): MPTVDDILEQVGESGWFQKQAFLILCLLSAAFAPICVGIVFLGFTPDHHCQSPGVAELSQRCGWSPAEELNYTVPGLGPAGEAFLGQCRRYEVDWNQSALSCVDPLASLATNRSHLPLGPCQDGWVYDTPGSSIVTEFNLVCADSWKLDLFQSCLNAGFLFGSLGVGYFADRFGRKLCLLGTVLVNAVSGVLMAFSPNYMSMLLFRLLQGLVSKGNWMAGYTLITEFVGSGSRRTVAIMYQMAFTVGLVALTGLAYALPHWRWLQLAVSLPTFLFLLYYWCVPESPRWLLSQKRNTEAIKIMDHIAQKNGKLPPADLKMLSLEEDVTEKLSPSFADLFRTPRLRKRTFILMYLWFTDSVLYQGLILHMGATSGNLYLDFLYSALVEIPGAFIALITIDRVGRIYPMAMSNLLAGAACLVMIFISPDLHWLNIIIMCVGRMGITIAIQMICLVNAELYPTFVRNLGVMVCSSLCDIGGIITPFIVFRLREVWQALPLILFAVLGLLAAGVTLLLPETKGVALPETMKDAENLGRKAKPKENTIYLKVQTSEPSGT

OCT3 (SLC22A3) = biological target: T3, OCT3 (SLC22A3) (Homo sapiens, UniProt O75751); experiment: Cellular uptake into OCT3-overexpressing HEK293 cells vs EV control cells (HPLC-MS/MS); conditions: label = favoured enantiomer
T3 sequence (O75751 1-556): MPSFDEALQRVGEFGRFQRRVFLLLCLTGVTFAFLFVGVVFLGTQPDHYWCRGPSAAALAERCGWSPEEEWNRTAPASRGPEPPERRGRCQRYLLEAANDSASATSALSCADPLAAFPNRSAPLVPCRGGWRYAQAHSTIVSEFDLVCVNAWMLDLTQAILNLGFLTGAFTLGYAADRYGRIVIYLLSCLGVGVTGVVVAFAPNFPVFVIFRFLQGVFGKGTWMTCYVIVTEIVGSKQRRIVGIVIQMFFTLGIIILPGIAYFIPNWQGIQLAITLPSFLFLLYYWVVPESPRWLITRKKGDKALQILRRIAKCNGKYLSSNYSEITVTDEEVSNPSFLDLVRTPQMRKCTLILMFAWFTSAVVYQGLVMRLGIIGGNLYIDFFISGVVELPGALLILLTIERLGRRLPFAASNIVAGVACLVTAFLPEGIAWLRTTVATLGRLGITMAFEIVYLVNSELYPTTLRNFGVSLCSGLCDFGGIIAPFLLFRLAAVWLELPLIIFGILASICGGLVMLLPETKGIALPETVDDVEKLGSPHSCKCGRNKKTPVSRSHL

MATE2-K (SLC47A2), sequence (Q86VL8 1-566 isoform Q86VL8-3): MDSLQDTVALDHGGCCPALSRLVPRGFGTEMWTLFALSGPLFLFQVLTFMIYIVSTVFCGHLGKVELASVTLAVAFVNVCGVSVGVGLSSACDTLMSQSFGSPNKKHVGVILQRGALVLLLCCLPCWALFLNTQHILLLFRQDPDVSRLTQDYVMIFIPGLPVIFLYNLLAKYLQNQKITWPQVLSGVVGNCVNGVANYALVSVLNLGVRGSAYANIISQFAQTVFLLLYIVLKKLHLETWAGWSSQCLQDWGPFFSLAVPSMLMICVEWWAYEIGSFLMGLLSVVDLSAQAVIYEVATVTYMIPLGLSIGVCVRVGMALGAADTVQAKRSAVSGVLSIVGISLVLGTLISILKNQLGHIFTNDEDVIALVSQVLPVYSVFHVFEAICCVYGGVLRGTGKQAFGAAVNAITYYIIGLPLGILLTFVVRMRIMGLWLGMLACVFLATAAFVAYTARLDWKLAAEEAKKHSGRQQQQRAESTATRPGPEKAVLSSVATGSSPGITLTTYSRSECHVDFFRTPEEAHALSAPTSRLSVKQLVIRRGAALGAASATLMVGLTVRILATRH

For `C[C@H](N)CN` [(S)-(−)-1,2-diaminopropane], which “stereoselectivity OCT2 (uptake ratio of the more strongly transported enantiomer divided by that of the other)” value (OCT2 (SLC22A2)) is on record?
Its value is 1.2-fold for (S).

And the “stereoselectivity MATE2K (uptake ratio of the more strongly transported enantiomer divided by that of the other)” value (MATE2-K (SLC47A2))?
Its value is 1.1-fold for (S).

What about the “stereoselectivity OCT1 (uptake ratio of the more strongly transported enantiomer divided by that of the other)” value (OCT1 (SLC22A1)) of the same compound?
The value was 1.3-fold for (S).

And the “stereoselectivity OCT3 (uptake ratio of the more strongly transported enantiomer divided by that of the other)” value (OCT3 (SLC22A3))?
The value was 1.4-fold for (S).

Reference: PMC12340637, “Transport of Small Aliphatic Amines by Polyspecific Solute Carriers: Deciphering Structure–Function Relationships” (ACS Pharmacology & Translational Science, 2025)
